Earlier results, collected in PMC8894159, “Paltusotine, a novel oral once-daily nonpeptide SST2 receptor agonist, suppresses GH and IGF-1 in healthy volunteers” (Pituitary, 2022).

Experiments:
IGF-1 = test system: IGF-1; parameters: method as in PMID 25664604; settings: twice-daily oral preparation; patients previously controlled on depot preparations; cited from earlier work
[1] = parameters: method as in PMID 25260838; settings: patients taking pasireotide; cited from earlier work

| Substance | patients maintaining IGF-1 control (IGF-1) [%] | patients with hyperglycemia/diabetes [1] |
| --- | --- | --- |
| octreotide | 58 | – |
| pasireotide | – | approximately 57% |
